Source: ChEMBL document CHEMBL5030550, “A late-stage diversification via Heck-Matsuda arylation: Straightforward synthesis and cytotoxic/antiproliferative profiling of novel aryl-labdane-type derivatives” (Bioorg Med Chem Lett, 2021)

Experiments:
[1] = tested on: THP-1; test: Cytotoxicity against human THP-1 cells assessed as reduction in cell viability measured after 24 hrs by MTT assay; format: functional, cell-based; settings: THP-1, 24 h
[2] = tested on: THP-1; test: Cytotoxicity against human THP-1 cells assessed as reduction in cell viability measured after 72 hrs by MTT assay; format: functional, cell-based; settings: THP-1, 72 h
[3] = tested on: K562; test: Cytotoxicity against human K562 cells assessed as reduction in cell viability measured after 24 hrs by MTT assay; format: functional, cell-based; settings: K562, 24 h
[4] = tested on: K562; test: Cytotoxicity against human K562 cells assessed as reduction in cell viability measured after 72 hrs by MTT assay; format: functional, cell-based; settings: K562, 72 h
[5] = tested on: MCF7; test: Cytotoxicity against human MCF7 cells assessed as reduction in cell viability measured after 24 hrs by MTT assay; format: functional, cell-based; settings: MCF7, 24 h
[6] = tested on: MCF7; test: Cytotoxicity against human MCF7 cells assessed as reduction in cell viability measured after 72 hrs by MTT assay; format: functional, cell-based; settings: MCF7, 72 h
[7] = tested on: HUVEC; test: Cytotoxicity against HUVEC assessed as reduction in cell viability measured after 24 hrs by MTT assay; format: cell-based; settings: Homo sapiens
[8] = tested on: HUVEC; test: Cytotoxicity against HUVEC assessed as reduction in cell viability measured after 72 hrs by MTT assay; format: cell-based; settings: Homo sapiens
[9] = tested on: K562; test: Cell cycle arrest in human K562 cells assessed as accumulation at sub G1 phase at 100 uM measured after 24 hrs by propidium iodide staining based flow cytometry analysis (reference value: 6.5+/- 0.7%); format: functional
[10] = tested on: K562; test: Cell cycle arrest in human K562 cells assessed as accumulation at G1 phase at 100 uM measured after 24 hrs by propidium iodide staining based flow cytometry analysis (reference value: 43.5+/- 0.3%); format: functional
[11] = tested on: K562; test: Cell cycle arrest in human K562 cells assessed as accumulation at S phase at 100 uM measured after 24 hrs by propidium iodide staining based flow cytometry analysis (reference value: 22.8+/- 0.5%); format: functional
[12] = tested on: K562; test: Cell cycle arrest in human K562 cells assessed as accumulation at G2/M phase at 100 uM measured after 24 hrs by propidium iodide staining based flow cytometry analysis (reference value: 25.6+/- 0.7%); format: functional
[13] = tested on: K562; test: Cell cycle arrest in human K562 cells assessed as accumulation at sub G1 phase at 25 uM measured after 24 hrs by propidium iodide staining based flow cytometry analysis (reference value: 6.5+/- 0.7%); format: functional
[14] = tested on: K562; test: Cell cycle arrest in human K562 cells assessed as accumulation at G1 phase at 25 uM measured after 24 hrs by propidium iodide staining based flow cytometry analysis (reference value: 43.5+/- 0.3%); format: functional
[15] = tested on: K562; test: Cell cycle arrest in human K562 cells assessed as accumulation at S phase at 25 uM measured after 24 hrs by propidium iodide staining based flow cytometry analysis (reference value: 22.8+/- 0.5%); format: functional
[16] = tested on: K562; test: Cell cycle arrest in human K562 cells assessed as accumulation at G2/M phase at 25 uM measured after 24 hrs by propidium iodide staining based flow cytometry analysis (reference value: 25.6+/- 0.7%); format: functional
[17] = tested on: K562; test: Cell cycle arrest in human K562 cells assessed as accumulation at sub G1 phase at 50 uM measured after 24 hrs by propidium iodide staining based flow cytometry analysis (reference value: 6.5+/- 0.7%); format: functional
[18] = tested on: K562; test: Cell cycle arrest in human K562 cells assessed as accumulation at G1 phase at 50 uM measured after 24 hrs by propidium iodide staining based flow cytometry analysis (reference value: 43.5+/- 0.3%); format: functional
[19] = tested on: K562; test: Cell cycle arrest in human K562 cells assessed as accumulation at S phase at 50 uM measured after 24 hrs by propidium iodide staining based flow cytometry analysis (reference value: 22.8+/- 0.5%); format: functional
[20] = tested on: K562; test: Cell cycle arrest in human K562 cells assessed as accumulation at G2/M phase at 50 uM measured after 24 hrs by propidium iodide staining based flow cytometry analysis (reference value: 25.6+/- 0.7%); format: functional
[21] = tested on: K562; test: Induction of ROS production in human K562 cells at 100 uM incubated for 24 hrs relative to control; format: functional
[22] = tested on: K562; test: Induction of apoptosis in human K562 cells at 25 uM after 24 hrs by PI staining based flow cytometric analysis (reference value: 0.1+/- 0.05%); format: functional
[23] = tested on: K562; test: Induction of apoptosis in human K562 cells at 50 uM after 24 hrs by PI staining based flow cytometric analysis (reference value: 0.1+/- 0.05%); format: functional
[24] = tested on: K562; test: Induction of apoptosis in human K562 cells at 100 uM after 24 hrs by PI staining based flow cytometric analysis (reference value: 0.1+/- 0.05%); format: functional
[25] = tested on: K562; test: Induction of autophagy in human K562 cells at 25 uM after 24 hrs (reference value: 3.9+/- 1.1%); format: functional
[26] = tested on: K562; test: Induction of autophagy in human K562 cells at 50 uM after 24 hrs (reference value: 3.9+/- 1.1%); format: functional
[27] = tested on: K562; test: Induction of autophagy in human K562 cells at 100 uM after 24 hrs (reference value: 3.9+/- 1.1%); format: functional

| SMILES | IC50 [1] [µM] | IC50 [2] [µM] | IC50 [3] [µM] | IC50 [4] [µM] | IC50 [5] [µM] | IC50 [6] [µM] | IC50 [7] [µM] | IC50 [8] [µM] | also measured |
| --- | --- | --- | --- | --- | --- | --- | --- | --- | --- |
| COc1ccc(/C=C2\CC[C@H]3C(C)(C)CCC[C@]3(C)[C@H]2CCC(C)CC(=O)O)cc1OC (some centres not stated) | 178 | 106 | > 200 | > 200 | > 200 | > 200 | > 200 | > 200 | – |
| C=C1CC[C@H]2C(C)(C)CCC[C@]2(C)[C@H]1CCC(C)CC(=O)O (some centres not stated) | > 200 | 132 | > 200 | > 200 | > 200 | > 200 | > 200 | 168 | – |
| Cc1ccc(/C=C2\CC[C@H]3C(C)(C)CCC[C@]3(C)[C@H]2CCC(C)CC(=O)O)cc1 (some centres not stated) | > 200 | 91 | > 200 | > 200 | > 200 | > 200 | > 200 | > 200 | – |
| COc1cc([C@@H]2c3cc4c(cc3[C@@H](O[C@@H]3O[C@@H]5CO[C@@H](C)O[C@H]5[C@H](O)[C@H]3O)[C@H]3COC(=O)[C@H]23)OCO4)cc(OC)c1O [ETOPOSIDE] | 59 | < 6.25 | > 200 | 66 | > 100 | 50 | > 200 | 29 | Activity [9]: 13%; Activity [10]: 20.6%; Activity [11]: 26%; Activity [12]: 30.4% |
| CC(CC[C@H]1/C(=C/c2ccc(I)cc2)CC[C@H]2C(C)(C)CCC[C@]12C)CC(=O)O (some centres not stated) | 68 | 33 | 98 | 55 | 89 | 50 | 194 | 100 | Activity [13]: 7.2%; Activity [14]: 44.5%; Activity [15]: 24.4%; Activity [16]: 24.1%; Activity [17]: 8.5%; Activity [18]: 43.3%; Activity [19]: 23.2%; Activity [20]: 21.9%; Activity [9]: 35.8%; Activity [10]: 27.5%; Activity [11]: 18.2%; Activity [12]: 17.1%; Activity [21]: 17.7%; Activity [22]: 2.4%; Activity [23]: 0.4%; Activity [24]: 1.1%; Activity [25]: 7.3%; Activity [26]: 14.6%; Activity [27]: 25.2% |
| CC(CC[C@H]1/C(=C/c2ccc(F)cc2)CC[C@H]2C(C)(C)CCC[C@]12C)CC(=O)O (some centres not stated) | > 200 | > 200 | > 200 | > 200 | – | – | > 200 | > 200 | – |
| O=c1[nH]cc(F)c(=O)[nH]1 [FLUOROURACIL] | – | – | – | – | > 200 | 166 | > 200 | 96 | – |
| COc1ccc(/C=C2\CC[C@H]3C(C)(C)CCC[C@]3(C)[C@H]2CCC(C)CC(=O)O)cc1 (some centres not stated) | > 200 | > 200 | > 200 | > 200 | – | – | > 200 | > 200 | – |
| CC(CC[C@H]1/C(=C/c2ccc(Br)cc2)CC[C@H]2C(C)(C)CCC[C@]12C)CC(=O)O (some centres not stated) | > 200 | > 200 | > 200 | > 200 | – | – | > 200 | > 200 | – |
| C=C1CC[C@H]2C(C)(C)CCC[C@]2(C)[C@H]1CCC(C)CC(=O)OC (some centres not stated) | > 200 | > 200 | > 200 | > 200 | > 200 | > 200 | > 200 | > 200 | – |
| CC(CC[C@H]1/C(=C/c2ccc(Cl)cc2)CC[C@H]2C(C)(C)CCC[C@]12C)CC(=O)O (some centres not stated) | > 200 | > 200 | > 200 | > 200 | – | – | > 200 | > 200 | – |
| CC(CC[C@H]1/C(=C/c2ccc([N+](=O)[O-])cc2)CC[C@H]2C(C)(C)CCC[C@]12C)CC(=O)O (some centres not stated) | 180 | 68 | > 200 | 169 | > 200 | 124 | > 200 | 194 | – |
